According to ChEMBL document CHEMBL5390228, “Unnatural Endotype B PPAPs as Novel Compounds with Activity against Mycobacterium tuberculosis” (J Med Chem, 2023):
The source made the active and inactive calls. No cut-off for these calls is given here.

Key:
[1] = system: Mycobacterium tuberculosis; experiment: Antimicrobial activity in Mycobacterium tuberculosis H37Rv ATCC 27294 assessed as reduction in metabolic activity by measuring incorporation radioactively labeled [3H] uracil into live bacilli preincubated for 72 hrs followed by [3H] uracil addition and measured after 18 hrs by beta-counter analysis; format: functional, organism-based; conditions: for Activity: time 90.0 hrs
[2] = system: Mycobacterium tuberculosis; experiment: Antimicrobial activity in Mycobacterium tuberculosis H37Rv ATCC 27294 infected in human Primary macrophage cells assessed as reduction in intracellular growth of bacteria incubated for 4 days by CFU assay; format: functional, organism-based; conditions: H37Rv ATCC 27294, Primary macrophage, 96 h
[3] = system: PBMC; experiment: Cytotoxicity against human PBMC cells assessed as reduction in cell viability at 2.5 to 75 uM incubated for 18 hrs by PrestoBlue reagent based fluorescence assay; format: toxicity; conditions: dose 2.5-75 µM
[4] = system: Macrophage; experiment: Cytotoxicity against human Primary macrophage cells assessed as reduction in cell viability at 2.5 to 75 uM incubated for 18 hrs by PrestoBlue reagent based fluorescence assay; format: toxicity; conditions: dose 2.5-75 µM
[5] = system: A549; experiment: Cytotoxicity against human A549 cells assessed as reduction in cell viability at 2.5 to 75 uM incubated for 48 hrs by resazurin reagent based fluorescence assay; format: toxicity; conditions: a549, 48 h, dose 2.5-75 µM
[6] = system: Mycobacterium tuberculosis; experiment: Antimicrobial activity in Mycobacterium tuberculosis expressing mCherry infected in human Primary macrophage cells assessed as reduction in number of intracellular bacilli at 7.5 uM by DAPI staining based Confocal laser scanning microscopy; format: functional, organism-based
[7] = system: HepaRG; experiment: Cytotoxicity against human HepaRG cells assessed as reduction in cell viability at 60 uM incubated for 24 hrs by WST-1 assay; format: toxicity, cell-based
[8] = system: HepG2; experiment: Cytotoxicity against human HepG2 cells assessed as reduction in cell viability at 10 to 20 uM incubated for 48 hrs by WST-1 assay; format: toxicity, cell-based; conditions: hepg2, 48 h, dose 10-20 µM
[9] = biological target: T1, Nuclear receptor subfamily 1 group I member 2 (Homo sapiens, UniProt O75469); experiment: Activation of GAL4-DBD fused human PXR LBD expressed in human HepG2 cells co-expressing GAL4-responsive UAS-driven firefly luciferase and renilla luciferase assessed as increase in luciferase activity at 1 to 20 uM incubated for 24 hrs by Dual-Glo luciferase assay relative to control; format: cell-based; conditions: hepg2, 24 h, dose 1-20 µM
T1 sequence (O75469 whole entry): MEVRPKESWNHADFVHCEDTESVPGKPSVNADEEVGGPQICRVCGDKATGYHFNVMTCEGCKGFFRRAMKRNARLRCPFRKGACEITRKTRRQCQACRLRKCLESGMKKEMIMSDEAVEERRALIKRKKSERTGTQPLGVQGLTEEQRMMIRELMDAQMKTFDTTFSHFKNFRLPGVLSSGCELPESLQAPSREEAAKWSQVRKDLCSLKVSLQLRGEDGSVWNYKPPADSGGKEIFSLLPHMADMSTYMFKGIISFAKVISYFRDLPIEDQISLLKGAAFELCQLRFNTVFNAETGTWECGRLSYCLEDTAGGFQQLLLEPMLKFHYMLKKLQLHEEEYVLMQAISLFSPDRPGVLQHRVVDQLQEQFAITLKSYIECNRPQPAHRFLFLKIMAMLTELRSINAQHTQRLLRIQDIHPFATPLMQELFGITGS

[10] = Induction of CYP3A4 mRNA expression in human HepaRG cells at 1 to 20 uM incubated for 24 hrs by RT-qPCR analysis
[11] = biological target: T1, Nuclear receptor subfamily 1 group I member 2; experiment: Transactivation of human PXR in human HepG2 cells coexpressing firefly luciferase gene under control of CYP3A4 promoter and renilla luciferase assessed as increase in luciferase activity at 1 to 20 uM incubated for 48 hrs by Dual-Glo luciferase assay; conditions: hepg2, 48 h
[12] = Induction of CYP3A4 protein expression in human HepaRG cells at 1 to 20 uM incubated for 24 hrs by targeted mass spectrometry-based immunoassay
[13] = system: HepG2; experiment: Cytotoxicity against human HepG2 cells assessed as fold reduction in cell viability upto 20 uM incubated for 96 hrs by alamarBlue Cell Viability assay relative to control; format: toxicity, cell-based; conditions: hepg2, 96 h
[14] = biological target: Cytochrome P450 3A4 (Homo sapiens, UniProt P08684); experiment: Induction of CYP3A4 activity in human HepaRG cells at 5 to 10 uM incubated for 96 hrs by liquid chromatography with tandem mass spectrometry-based substrate cocktail assay; format: ADME, cell-based; conditions: dose 5-10 µM
Sequence of Cytochrome P450 3A4 (P08684 whole entry): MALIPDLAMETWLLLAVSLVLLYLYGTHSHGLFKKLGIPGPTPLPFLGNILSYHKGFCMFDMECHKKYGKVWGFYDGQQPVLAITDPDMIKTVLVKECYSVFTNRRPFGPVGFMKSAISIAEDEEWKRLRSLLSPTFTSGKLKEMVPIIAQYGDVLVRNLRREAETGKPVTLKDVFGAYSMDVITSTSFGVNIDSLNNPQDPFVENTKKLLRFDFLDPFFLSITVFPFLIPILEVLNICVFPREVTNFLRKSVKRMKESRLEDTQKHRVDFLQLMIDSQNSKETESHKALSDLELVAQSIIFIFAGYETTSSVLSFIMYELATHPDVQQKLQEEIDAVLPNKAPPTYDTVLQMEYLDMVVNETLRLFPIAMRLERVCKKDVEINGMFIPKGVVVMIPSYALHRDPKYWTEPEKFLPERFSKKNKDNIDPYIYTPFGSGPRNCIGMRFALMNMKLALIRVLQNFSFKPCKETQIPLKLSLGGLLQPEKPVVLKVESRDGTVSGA

[15] = biological target: T2, Cytochrome P450 1A2 (Homo sapiens, UniProt P05177); experiment: Induction of CYP1A2 activity in human HepaRG cells at 5 to 10 uM incubated for 96 hrs by liquid chromatography with tandem mass spectrometry-based substrate cocktail assay; format: ADME, cell-based; conditions: dose 5-10 µM
T2 sequence (P05177 whole entry): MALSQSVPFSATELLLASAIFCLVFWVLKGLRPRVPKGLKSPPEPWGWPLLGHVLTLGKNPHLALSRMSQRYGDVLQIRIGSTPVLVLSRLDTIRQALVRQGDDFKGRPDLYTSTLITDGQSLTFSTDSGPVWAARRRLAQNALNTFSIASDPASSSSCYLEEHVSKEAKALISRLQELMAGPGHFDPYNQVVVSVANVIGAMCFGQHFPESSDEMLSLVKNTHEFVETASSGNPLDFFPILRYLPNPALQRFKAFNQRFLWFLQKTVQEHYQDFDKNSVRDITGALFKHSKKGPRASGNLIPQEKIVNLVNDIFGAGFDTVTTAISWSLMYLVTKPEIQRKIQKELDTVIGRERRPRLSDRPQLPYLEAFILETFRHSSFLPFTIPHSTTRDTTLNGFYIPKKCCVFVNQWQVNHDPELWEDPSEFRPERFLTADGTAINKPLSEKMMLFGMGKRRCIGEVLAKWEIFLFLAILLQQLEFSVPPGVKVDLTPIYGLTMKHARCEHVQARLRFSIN

[16] = biological target: T3, Cytochrome P450 2B6 (Homo sapiens, UniProt P20813); experiment: Induction of CYP2B6 activity in human HepaRG cells at 5 to 10 uM incubated for 96 hrs by liquid chromatography with tandem mass spectrometry-based substrate cocktail assay; format: ADME, cell-based; conditions: dose 5-10 µM
T3 sequence (P20813 whole entry): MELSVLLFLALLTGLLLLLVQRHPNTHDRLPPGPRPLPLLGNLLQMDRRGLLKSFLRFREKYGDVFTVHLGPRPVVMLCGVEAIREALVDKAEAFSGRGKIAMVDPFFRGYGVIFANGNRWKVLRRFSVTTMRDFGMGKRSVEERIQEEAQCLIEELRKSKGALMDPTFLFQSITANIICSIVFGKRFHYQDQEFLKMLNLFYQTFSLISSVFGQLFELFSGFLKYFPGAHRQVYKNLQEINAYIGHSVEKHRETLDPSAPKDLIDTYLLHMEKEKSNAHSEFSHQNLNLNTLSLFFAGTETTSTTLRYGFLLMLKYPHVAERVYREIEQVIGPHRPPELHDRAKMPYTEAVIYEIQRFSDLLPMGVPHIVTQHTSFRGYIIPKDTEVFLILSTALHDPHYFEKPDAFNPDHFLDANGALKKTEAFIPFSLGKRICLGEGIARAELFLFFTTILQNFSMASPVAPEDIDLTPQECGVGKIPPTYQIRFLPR

[17] = biological target: T4, Cytochrome P450 2C8 (Homo sapiens, UniProt P10632); experiment: Induction of CYP2C8 activity in human HepaRG cells at 5 to 10 uM incubated for 96 hrs by liquid chromatography with tandem mass spectrometry-based substrate cocktail assay; format: ADME, cell-based; conditions: dose 5-10 µM
T4 sequence (P10632 whole entry): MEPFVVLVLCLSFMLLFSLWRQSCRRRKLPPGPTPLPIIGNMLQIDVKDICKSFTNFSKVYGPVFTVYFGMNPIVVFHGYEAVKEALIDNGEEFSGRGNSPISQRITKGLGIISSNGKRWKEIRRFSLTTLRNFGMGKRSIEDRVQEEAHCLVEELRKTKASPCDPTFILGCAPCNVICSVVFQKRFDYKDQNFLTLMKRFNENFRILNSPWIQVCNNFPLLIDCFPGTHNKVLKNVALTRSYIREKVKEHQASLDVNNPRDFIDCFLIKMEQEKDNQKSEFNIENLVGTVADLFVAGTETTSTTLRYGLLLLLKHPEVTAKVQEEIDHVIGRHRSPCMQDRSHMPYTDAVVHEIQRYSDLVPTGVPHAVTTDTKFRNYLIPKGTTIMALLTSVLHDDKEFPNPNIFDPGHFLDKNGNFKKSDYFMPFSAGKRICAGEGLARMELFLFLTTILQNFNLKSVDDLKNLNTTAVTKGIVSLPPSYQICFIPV

[18] = biological target: Cytochrome P450 2C9 (Homo sapiens, UniProt P11712); experiment: Induction of CYP2C9 activity in human HepaRG cells at 5 to 10 uM incubated for 96 hrs by liquid chromatography with tandem mass spectrometry-based substrate cocktail assay; format: ADME, cell-based; conditions: dose 5-10 µM
Sequence of Cytochrome P450 2C9 (P11712 whole entry): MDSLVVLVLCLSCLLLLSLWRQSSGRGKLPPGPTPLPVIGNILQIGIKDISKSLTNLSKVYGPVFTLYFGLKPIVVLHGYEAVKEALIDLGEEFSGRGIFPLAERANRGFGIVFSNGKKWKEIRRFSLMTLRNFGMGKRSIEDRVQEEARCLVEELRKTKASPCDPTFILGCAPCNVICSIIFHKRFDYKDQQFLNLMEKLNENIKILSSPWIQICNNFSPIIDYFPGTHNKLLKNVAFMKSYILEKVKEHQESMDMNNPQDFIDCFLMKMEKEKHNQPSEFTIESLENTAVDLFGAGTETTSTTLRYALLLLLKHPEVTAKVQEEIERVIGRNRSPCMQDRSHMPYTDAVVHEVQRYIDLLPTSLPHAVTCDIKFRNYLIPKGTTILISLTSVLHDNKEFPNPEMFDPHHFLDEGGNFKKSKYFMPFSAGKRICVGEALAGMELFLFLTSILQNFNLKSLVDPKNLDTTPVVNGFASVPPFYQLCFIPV

[19] = biological target: Cytochrome P450 2C19 (Homo sapiens, UniProt P33261); experiment: Induction of CYP2C19 activity in human HepaRG cells at 5 to 10 uM incubated for 96 hrs by liquid chromatography with tandem mass spectrometry-based substrate cocktail assay; format: ADME, cell-based; conditions: dose 5-10 µM
Sequence of Cytochrome P450 2C19 (P33261 whole entry): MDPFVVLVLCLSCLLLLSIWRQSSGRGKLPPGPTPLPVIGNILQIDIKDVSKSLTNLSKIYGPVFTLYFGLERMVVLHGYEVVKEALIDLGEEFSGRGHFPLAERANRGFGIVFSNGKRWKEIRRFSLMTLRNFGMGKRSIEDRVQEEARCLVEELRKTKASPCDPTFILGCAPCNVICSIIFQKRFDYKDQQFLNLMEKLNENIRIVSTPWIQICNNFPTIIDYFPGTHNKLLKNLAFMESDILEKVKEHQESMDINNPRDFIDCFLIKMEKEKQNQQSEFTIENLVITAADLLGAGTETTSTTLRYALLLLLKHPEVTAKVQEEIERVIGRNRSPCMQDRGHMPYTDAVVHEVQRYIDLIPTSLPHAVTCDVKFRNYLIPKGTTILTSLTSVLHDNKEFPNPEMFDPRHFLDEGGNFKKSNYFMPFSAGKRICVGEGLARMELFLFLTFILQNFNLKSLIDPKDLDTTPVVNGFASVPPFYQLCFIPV

[20] = biological target: T4, Cytochrome P450 2C8; experiment: Induction of CYP2C8 activity in human HepaRG cells at 10 uM incubated for 96 hrs by liquid chromatography with tandem mass spectrometry-based substrate cocktail assay; format: ADME, cell-based

For `C=CC[C@@]12C[C@H](CC=C(C)C)C(C)(C)[C@@](CC=C)(C(=O)C(C(C)=O)=C1[O-])C2=O.[Na+]`, the IC50 [1] was 38.8 µM, the Activity [1] was “Active” and the IC50 [2] was 6.8 µM. The Activity [3] was “Non-Toxic”, the Activity [4] was “Non-Toxic” and the Activity [5] was “Non-Toxic”. The Activity [6] was “Active”, the Activity [7] was < 80% and the Activity [8] was “Toxic”. The Activity [9] was “Dose-Dependent Effect”, the Activity [10] was “Not Active” and the Activity [11] was “Dose-Dependent Effect”. For the same molecule, the Activity [12] was “Not Active”, the “fold change (FC)” value [13] was 5 and the Activity [14] was “Not Active”. For the same molecule, the Activity [15] was “Not Active”, the Activity [16] was “Not Active” and the Activity [17] was “Not Active”. The Activity [18] was “Not Active” and the Activity [19] was “Not Active”.

In the case of `C=CC[C@@]12C(=O)C(C(=O)c3ccccc3)=C(O)[C@@](Cc3ccccc3)(C[C@H](Cc3ccccc3)C1(C)C)C2=O`, the Activity [1] is reported as “inactive”.

For `C=CC[C@@]12C[C@H](CC=C(C)C)C(C)(C)[C@@](CC=C)(C(=O)C(C(=O)c3ccccc3)=C1O)C2=O`, the Activity [1] was “inactive”.

With `CO[C@H]1/C=C/O[C@@]2(C)Oc3c(C)c(O)c4c(O)c(c(/C=N/N5CCN(C)CC5)c(O)c4c3C2=O)NC(=O)/C(C)=C\C=C\[C@H](C)[C@H](O)[C@@H](C)[C@@H](O)[C@@H](C)[C@H](OC(C)=O)[C@@H]1C` [RIFAMPIN] the Activity [9] was “Active” and the Activity [20] was “Not Active”.

With `CC(C)=CC[C@H]1C[C@@]2(CC=C(C)C)C(=O)[C@](CC=C(C)C)(C(=O)C(C(=O)C(C)C)=C2O)C1(C)C` the Activity [1] was “inactive”.

In the case of `C=CC[C@@]12C(=O)C(C(=O)c3ccccc3)=C(O)[C@@](Cc3ccccc3)(C[C@H](CC=C(C)C)C1(C)C)C2=O`, the Activity [1] is reported as “inactive”.

For `CC(=O)C1=C(O)[C@@]2(CC=C(C)C)C[C@H](CC=C(C)C)C(C)(C)[C@@](CC=C(C)C)(C1=O)C2=O`, the Activity [1] was “inactive”.
